Reference: paper PMC5717258, “Bioaccumulation of pharmaceuticals and personal care product chemicals in fish exposed to wastewater effluent in an urban wetland” (Scientific Reports, 2017)
Where two headings read alike, the source gives them in different places.

Experiments:
in vivo = conditions: for concentration at 21 days: goldfish (Carassius auratus), in vivo
From the text: Cages were visited weekly, and fish (13/cage) were fed during the visits (20 g/cage). All animal experiments were in accordance with CCAC guidance and approved by the GLLFAS-WSTD Animal Care Committee (Government of Canada). Further details on the caging and preparation of the fish and animal care protocols are provided in Simmons et al.[32]. […] A fourth site, Jordan Harbour (JH), a widening of 20 Mile Creek adjacent to Lake Ontario near Jordan ON, served as a reference site. Mass and fork length were measured and recorded. Plasma collection and storage is described in the SI. Plasma of caged goldfish was divided for proteome, metabolome and PPCP analysis. Due to limited volumes, pooled samples of plasma from 25 individual fish (50 µL/individual) was pooled to yield one sample from at each location for PPCP analysis.
(§1) A total of 20 fish plasma samples from the pooled caged fish (7) and the wild fish (13) along with 12 water samples were selected for analysis. […] A full list of analytes is provided in Supplementary Information. Mass labelled^13C-, or deuterated surrogate internal standards were used for quantification of all analytes via the isotope dilution/surrogate standard quantitation method. Prior to extraction and/or clean-up procedures, aqueous samples were adjusted to pH 2.0, spiked with extraction surrogate standards, then adjusted to pH 4 using tetrasodium ethylenediamine-tetraacetate dihydrate. Plasma samples (2.3–2.5 g) were spiked with extraction surrogate standards, sonicated with 20 mL acetonitrile, then diluted with ultra-pure water to 200 mL. The extracts were cleaned up by solid phase extraction using Oasis HLB cartridges (Waters Ltd. Mississauga ON), filtered, and analyzed by liquid chromatography-electrospray ionization-tandem mass spectrometry (LC/ESI-MS/MS) in positive or negative ionization mode. The analysis of the complete list of analytes (SI Table S1) required a total of five instrumental runs.
(§2) Quality assurance steps included analysis of lab blanks for water and plasma along with matrix recovery spikes. […] Detection limits (DLs) were defined as lowest calibration level adjusted to the maximal sample size or 3 times the signal of the noise in the target channel converted to an equivalent sample, whichever was greater. […] Where analytes were detected in two or more samples of the same species or series of water samples, non-detect values were converted to ½ the DL value for reporting purposes.

[1] = cited from earlier work
[2] = Plasma bioaccumulation factor (BAFP), goldfish; assay type: in vivo, goldfish (Carassius auratus); conditions: for BAFP, CPM2 goldfish caged: water sample of August 2012
Description: (§3) Bioaccumulation factor (BAFP) was calculated as concentration in fish plasma (ng/g × 1000) divided by concentration in water (ng/L). Two widely used modeling approaches for predicting organic contaminant bioaccumulation were assessed: the BCF-BAF model for whole body BAFs[53] and the fish-plasma concentration calculation of Huggett et al.[35] modified by Berninger et al.[54]. The latter involves estimating an octanol-water partition coefficient (Kow) adjusted for fraction ionized (log D), using the pKa value to adjust log Kow[54] taking into account the pH of CPM waters. Further information on the calculation of log D, blood-water partitioning (PBW), and plasma concentrations (FPC) is given in the SI.

[3] = Jordan Harbour brown bullhead, wet weight
Description: (§4) Plasma from 9 individual male fish (500 µL/individual) was pooled to yield 3 samples for PPCP analysis. […] Plasma from 6 individual carp (2.3–3.5 g) from each location was selected for PPCP analysis. […] Plasma samples were frozen (−80 °C) until analysis.
as §1

[4] = cited from earlier work; for Sculpin (whole body) concentration: Table S7, ref Meador et al. (2016); for whole fish concentration, sculpin: ref Meador et al. 18
[5] = parameters: method as in US EPA Chemistry Dashboard; conditions: ref US EPA Chemistry Dashboard; cited from earlier work
[6] = cited from earlier work; for Salmon (whole body) concentration: Table S7, ref Meador et al. (2016); for whole fish concentration, salmon: ref Meador et al. 18
[7] = for plasma concentration, CPM-C 01: Cootes carp 01, 2011, male; for plasma concentration, CPM-C 2: Cootes carp 2, Sep 27, 2011, male; for plasma concentration, CPM-C 10: Cootes carp 10, Sep 28, 2011, female; for plasma concentration, CPM-C 20: Cootes carp 20, 2011, male; for plasma concentration, JH-C 54: Jordan Harbour carp 54, Nov 7, 2011, male; for plasma concentration, JH-C 73: Jordan Harbour carp 73, Nov 7, 2011, female; for plasma concentration, JH-C 74: Jordan Harbour carp 74, Nov 7, 2011, male; for plasma concentration, JH-C 75: Jordan Harbour carp 75, Nov 7, 2011, female; for plasma concentration, JH-C 78: Jordan Harbour carp 78, Nov 7, 2011, male; for plasma concentration, JH-C 82: Jordan Harbour carp 82, Nov 7, 2011, female
Description: as §4, §1, §2

[8] = Plasma bioaccumulation factor (BAFP), carp; assay type: in vivo, carp (Cyprinus carpio)
Description: as §3

[9] = cited from earlier work; for BAFP: treated WWTP effluent from two Swedish cities
[10] = cited from earlier work; remark: listed apart in the source
[11] = cited from earlier work; remark: listed apart in the source
[12] = conc in fish plasma/conc in water
[13] = range based on range of plasma concentrations
[14] = male, goldfish (Carassius auratus), in vivo

## CCN(CC)C(=O)c1cccc(C)c1 [DEET, N,N-Diethyl-m-toluamide]
In vivo; CPM1, 07-2014, pooled plasma, wet weight
  plasma concentration, CPM1 caged: 0.416 ng/g
In vivo; CPM2, 07-2014, pooled plasma, wet weight
  plasma concentration, CPM2 caged: 0.41 ng/g
In vivo; CPM3, 07-2014, pooled plasma, wet weight
  plasma concentration, CPM3 caged: 0.314 ng/g
In vivo; Cootes Paradise Marsh, range
  caged goldfish plasma, range of concentrations: 0.23 to 0.58 ng/g
In vivo; Jordan Harbour reference site, 07-2014, pooled plasma, wet weight
  plasma concentration, JH caged: 0.235 ng/g
[1]
  BAFP in carp plasma, median: < 6.2
[2]
  BAFP, CPM1 goldfish caged: 4 L/kg
  BAFP, CPM2 goldfish caged: 4 L/kg
[2]; CPM3
  BAFP, CPM3 goldfish caged: 4 L/kg
[2]; Jordan Harbour
  BAFP, JH goldfish caged: 9 L/kg
[2]; [12]
  BAFP at CPM3, wild goldfish, average: 9 L/kg
[2]; [13]
  BAFP at CPM3, wild goldfish, range: 4 to 11 L/kg
[3]
  plasma concentration, JH-BB: 2.59 ng/g
[4]
  Sculpin (whole body) concentration: 0.41 to 2.2 ng/g
  whole fish concentration, sculpin: 0.41 - 2.2 ng/g wet weight or ng/mL for plasma
[5]
  log Kow: 2.18
[6]
  Salmon (whole body) concentration: 0.39 to 1.6 ng/g
  whole fish concentration, salmon: 0.39 - 1.6 ng/g wet weight or ng/mL for plasma
[7]; Cootes Paradise Marsh, range
  Cootes carp plasma, range of concentrations: 0.19 to 1.15 ng/g
  wild goldfish plasma, range of concentrations: 0.31 to 0.42 ng/g
[7]; wet weight
  plasma concentration, CPM-C 01: 0.194 ng/g
  plasma concentration, CPM-C 2: 1.09 ng/g
  plasma concentration, CPM-C 10: 1.15 ng/g
  plasma concentration, CPM-C 20: 0.35 ng/g
  plasma concentration, JH-C 54: 0.331 ng/g
  plasma concentration, JH-C 73: 0.083 ng/g
  plasma concentration, JH-C 74: 0.494 ng/g
  plasma concentration, JH-C 75: 0.914 ng/g
  plasma concentration, JH-C 78: 1.09 ng/g
  plasma concentration, JH-C 82: 0.865 ng/g
[7]; Cootes carp 13, Sep 28, 2011, female, wet weight
  plasma concentration, CPM-C 13: 1.1 ng/g
[7]; Cootes carp 36, Oct 3, 2011, female, wet weight
  plasma concentration, CPM-C 36: 0.743 ng/g
[7]; Jordan Harbour, carp vs caged goldfish
  plasma concentration, fold higher in carp plasma than in goldfish: about 2 fold
[7]; Table S7
  Carp plasma concentration, this study (range): 0.19 to 1.15 ng/g
  Goldfish plasma concentration, this study (range): 0.23 to 0.58 ng/g
[7]; Table S8
  plasma concentration, carp, this study (mean): 0.77 ng/g wet weight or ng/mL for plasma
  plasma concentration, goldfish, this study (mean): 0.46 ng/g wet weight or ng/mL for plasma
[7]; wild goldfish sample 01, 2012, wet weight
  plasma concentration, CPM wild-01: 0.234 ng/g
[7]; wild goldfish sample 02, 2012, wet weight
  plasma concentration, CPM wild-02: 0.584 ng/g
[7]; wild goldfish sample 03, 2012, wet weight
  plasma concentration, CPM wild-03: 0.56 ng/g
[8]; Jordan Harbour
  BAFP at JH, carp, average: 32 L/kg
  BAFP at JH, carp, range: 4 to 51 L/kg
[8]; [12]
  BAFP at CPM3, carp, average: 15 L/kg
[8]; [13]
  BAFP at CPM3, carp, range: 4 to 22 L/kg

## CC(C)Cc1ccc(C(C)C(=O)O)cc1 (stereo not drawn) [Ibuprofen]
[9]
  BAFP: 21–58
[3]
  plasma concentration, JH-BB: < 5.7 ng/g
[7]; wet weight
  plasma concentration, CPM-C 01: < 3.16 ng/g
  plasma concentration, CPM-C 2: < 4.31 ng/g
  plasma concentration, CPM-C 10: < 4.53 ng/g
  plasma concentration, CPM-C 20: < 3.23 ng/g
  plasma concentration, JH-C 54: < 3.18 ng/g
  plasma concentration, JH-C 73: < 3.09 ng/g
  plasma concentration, JH-C 74: < 3.19 ng/g
  plasma concentration, JH-C 75: < 4.52 ng/g
  plasma concentration, JH-C 78: < 3.13 ng/g
  plasma concentration, JH-C 82: < 3.01 ng/g

## O=C1Nc2ccc(Cl)cc2C(c2ccccc2)=NC1O (stereo not drawn) [Oxazepam]
[9]
  BAFP: 0.7–3.6

## CN[C@H]1CC[C@@H](c2ccc(Cl)c(Cl)c2)c2ccccc21 [Sertraline]
[9]; ref Fick et al. 12
  plasma concentration, rainbow trout: 0.30-2.4 ng/g wet weight or ng/mL for plasma
[1]
  BAFP in carp plasma, median: 8.9
[1]; mean ± SD, ref Tanoue et al.16
  plasma concentration, crucian carp & common carp: 0.21±0.18 ng/g wet weight or ng/mL for plasma
[2]
  BAFP, CPM1 goldfish caged: 50 L/kg
  BAFP, CPM2 goldfish caged: 27 L/kg
[4]
  Sculpin (whole body) concentration: 0.2 ng/g
  whole fish concentration, sculpin: 0.2 ng/g wet weight or ng/mL for plasma
[5]
  log Kow: 5.29
[6]
  Salmon (whole body) concentration: 17 ng/g
  whole fish concentration, salmon: 17 ng/g wet weight or ng/mL for plasma
[10]; human, converted from µg/mL, ref Schulz et al.[56]
  Therapeutic "normal" blood-plasma/serum concentration: 50 to 250 ng/mL
[10]; human, ref Schulz et al.[56]
  toxic dose (toxic blood-plasma/serum concentration): 290 ng/mL
[10]; ref Berninger & Brooks[60]
  Cmax (human therapeutic dose): 290 ng/mL

## Cc1cc(C)nc(NS(=O)(=O)c2ccc(N)cc2)n1 [Sulfamethazine]
In vivo; caged goldfish plasma, range of concentrations
  concentration at 21 days: 0.06 to 0.17 ng/g
In vivo; plasma concentration, CPM1 caged
  concentration at 21 days: < 0.244 ng/g
In vivo; plasma concentration, CPM2 caged
  concentration at 21 days: < 0.165 ng/g
In vivo; plasma concentration, CPM3 caged
  concentration at 21 days: < 0.123 ng/g
In vivo; plasma concentration, JH caged
  concentration at 21 days: < 0.12 ng/g
[2]; goldfish and carp
  log BAFP, goldfish and carp in this study: 1.53–2.73
[5]
  log Kow: 0.19
[7]; in vivo
  plasma concentration, carp, this study (mean): < mdl
[7]; [14]
  plasma concentration, CPM wild-01: 0.166 ng/g
  plasma concentration, CPM wild-02: 0.084 ng/g
  plasma concentration, CPM wild-03: 0.066 ng/g
  plasma concentration, goldfish, this study (mean): 0.11 ng/g wet weight or ng/mL for plasma
[11]; ref Zhao et al. 15
  plasma concentration, carp and tilapia: 6.47 ng/g wet weight or ng/mL for plasma
[11]; tilapia and carp species in southern China
  log BAFP: 1.92–4.18
